Assay results as given in patent US20180243298A1, “TRPV3 MODULATORS” (AbbVie Inc., priority 2015, published 2018).

Each compound was assayed against T1, human TRPV3 (Homo sapiens, UniProt Q8NET8) (assay: Calcium flux assay (FLIPR TETRA), recombinant HEK293 cells expressing TRPV3, 2-APB response). Details: 2-APB at its EC80.
T1 construct: expressed in transfected cells; host or cells: HEK293
T1 sequence (Q8NET8 1-790): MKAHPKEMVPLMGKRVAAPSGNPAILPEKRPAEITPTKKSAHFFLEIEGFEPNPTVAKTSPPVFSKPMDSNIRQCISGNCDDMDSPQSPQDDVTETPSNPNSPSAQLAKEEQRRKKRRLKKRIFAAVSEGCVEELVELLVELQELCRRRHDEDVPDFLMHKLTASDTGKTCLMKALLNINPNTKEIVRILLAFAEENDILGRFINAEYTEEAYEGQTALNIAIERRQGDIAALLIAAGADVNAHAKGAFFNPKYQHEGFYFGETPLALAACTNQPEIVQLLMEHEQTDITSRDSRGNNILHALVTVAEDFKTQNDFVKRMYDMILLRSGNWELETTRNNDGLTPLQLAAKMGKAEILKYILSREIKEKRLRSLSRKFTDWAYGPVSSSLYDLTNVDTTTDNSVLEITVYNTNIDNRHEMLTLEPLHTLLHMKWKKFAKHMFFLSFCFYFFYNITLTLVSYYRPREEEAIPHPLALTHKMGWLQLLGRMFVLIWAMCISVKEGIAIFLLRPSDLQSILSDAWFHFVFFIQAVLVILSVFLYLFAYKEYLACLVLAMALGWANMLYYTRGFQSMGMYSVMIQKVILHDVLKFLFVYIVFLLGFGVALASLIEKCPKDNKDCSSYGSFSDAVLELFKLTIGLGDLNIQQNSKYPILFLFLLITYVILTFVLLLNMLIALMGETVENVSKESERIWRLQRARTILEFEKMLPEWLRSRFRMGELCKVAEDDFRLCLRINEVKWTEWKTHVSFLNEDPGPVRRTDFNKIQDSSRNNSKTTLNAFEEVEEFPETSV
Assay type: cell-based
Method in brief: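 HEK293 cells stably expressing human or mouse TRPV3, loaded with Calcium-4 dye for 90–120 min, read on FLIPR TETRA. Peak fluorescence rise over baseline expressed as percent of the maximal response to 2-APB at its EC80 without compound.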

| SMILES | IC50 [nM] |
| --- | --- |
| COc1ncnc(OC)c1C(=O)Nc1nc(-c2ccc(C(F)(F)F)cn2)c(/C(C)=N/O)s1 [Example 88, N-{5-[(1E)-N-hydroxyethanimidoyl]-4-[5-(trifluoromethyl)pyridin-2-yl]-1,3-thiazol-2-yl}-4,6-dimethoxypyrimidine-5-carboxamide] | 50 to 100 |
| COc1ncnc(OC)c1C(=O)Nc1nc(-c2ccc(C(F)(F)F)cn2)c(C(C)(C)O)s1 [Example 85, N-{5-(2-hydroxypropan-2-yl)-4-[5-(trifluoromethyl)pyridin-2-yl]-1,3-thiazol-2-yl}-4,6-dimethoxypyrimidine-5-carboxamide] | 50 to 100 |
| COc1ncnc(OC)c1C(=O)Nc1nc(C2CC2)c(Cc2ccc(F)cc2)s1 [Example 190, N-[4-cyclopropyl-5-(4-fluorobenzyl)-1,3-thiazol-2-yl]-4,6-dimethoxypyrimidine-5-carboxamide] | 50 to 100 |
| COCCN(C)S(=O)(=O)c1cccc(-c2sc(NC(=O)c3c(OC)ncnc3OC)nc2C(F)(F)F)c1 [Example 197, 4,6-dimethoxy-N-[5-{3-[(2-methoxyethyl)(methyl)sulfamoyl]phenyl}-4-(trifluoromethyl)-1,3-thiazol-2-yl]pyrimidine-5-carboxamide] | < 50 |
| COc1ncnc(OC)c1C(=O)Nc1nc(CC(C)(C)C)cs1 [Example 191, N-[4-(2,2-dimethylpropyl)-1,3-thiazol-2-yl]-4,6-dimethoxypyrimidine-5-carboxamide] | 50 to 100 |
| COc1ncnc(OC)c1C(=O)Nc1nc(C(F)(F)F)c(-c2cnc(C#N)c(OCC3COC3)c2)s1 [Example 205, N-(5-(6-cyano-5-(oxetan-3-yl-methoxy)pyridine-3-yl)-4-(trifluoromethyl)thiazol-2-yl)-4,6-dimethoxypyrimidine-5-carboxamide] | 100 to 500 |
| COc1ncnc(OC)c1C(=O)Nc1nc(C(F)(F)F)c(-c2ccc(OCC(F)(F)F)nc2)s1 [Example 194, 4,6-dimethoxy-N-{5-[6-(2,2,2-trifluoroethoxy)pyridin-3-yl]-4-(trifluoromethyl)-1,3-thiazol-2-yl}pyrimidine-5-carboxamide] | 100 to 500 |

The remaining lines, values ahead:

| IC50 [nM] | SMILES |
| --- | --- |
| 100 to 500 | COc1ncnc(OC)c1C(=O)Nc1nc(C(F)(F)F)c(C2=CCC(C#N)CC2)s1 (centres unmarked) [Example 164, N-[5-(4-cyanocyclohex-1-en-1-yl)-4-(trifluoromethyl)-1,3-thiazol-2-yl]-4,6-dimethoxypyrimidine-5-carboxamide] |
| 100 to 500 | COc1ncnc(OC)c1C(=O)Nc1nc(C(F)(F)F)c(N2CCOCC2)s1 [Example 32, 4,6-dimethoxy-N-[5-(morpholin-4-yl)-4-(trifluoromethyl)-1,3-thiazol-2-yl]pyrimidine-5-carboxamide] |
| 100 to 500 | COc1ncnc(OC)c1C(=O)Nc1nc(C(F)(F)F)c(C2OCCCO2)s1 [Example 139, N-[5-(1,3-dioxan-2-yl)-4-(trifluoromethyl)-1,3-thiazol-2-yl]-4,6-dimethoxypyrimidine-5-carboxamide] |
| 100 to 500 | COc1ncnc(OC)c1C(=O)Nc1nc(C(F)(F)F)c(CN2CC[C@H](F)C2)s1 [Example 57, N-[5-{[(3 S)-3-fluoropyrrolidin-1-yl]methyl}-4-(trifluoromethyl)-1,3-thiazol-2-yl]-4,6-dimethoxypyrimidine-5-carboxamide] |
| > 1000 | COc1ncnc(OC)c1C(=O)Nc1nc(C(F)(F)F)c(C2CCCOC2)s1 (single isomer, unassigned) [Example 149, 4,6-dimethoxy-N-{5-[(3S*)-tetrahydro-2H-pyran-3-yl]-4-(trifluoromethyl)-1,3-thiazol-2-yl}pyrimidine-5-carboxamide] |
| < 50 | CCOc1ncnc(OC)c1C(=O)Nc1nc(C(F)(F)F)c(CC)s1 [Example 70, 4-ethoxy-N-[5-ethyl-4-(trifluoromethyl)-1,3-thiazol-2-yl]-6-methoxypyrimidine-5-carboxamide] |
| 50 to 100 | COc1ncnc(OC)c1C(=O)Nc1nc(C(F)(F)F)c(-c2cn(C)nc2C(C)C)s1 [Example 181, 4,6-dimethoxy-N-{5-[1-methyl-3-(propan-2-yl)-1H-pyrazol-4-yl]-4-(trifluoromethyl)-1,3-thiazol-2-yl}pyrimidine-5-carboxamide] |
